The test system of one data set is MDAMB-231 cells. As to the kind of experiment: WST-1 cell viability assay, cancer cells. The note with it: 25-150 μg/mL DOX, 24 hours and 72 hours.
Data set [1] relates to Murine breast cancer (4T1) cells. Briefly: In vivo study in tumor-bearing mice. Conditions: equivalent doxorubicin dose 7.5 mg/kg i.v. on alternate day, 4T1 tumor Balb/c mice. The method, then:
All animal experiments were done with the approval of Institutional Animal Ethical Committee (IAEC), National Institute of Immunology, New Delhi. Murine breast cancer (4T1) cells ([…]) in 200 μL of FBS were injected subcutaneously into the right flanks of 5-week-old female Balb/c mice. Mice were randomized into four groups (6 mice in each group) after they developed a tumor of ˜75 mm^3. […] Tumor measurements were made every alternate day using a digital caliper, and tumor volume was calculated using the formula L×B2/2 where L and B are the length and breadth of the tumor. Each mouse was weighed before dosing and weight loss with respect to dosing. The survival study was continued until the last mouse was found live in all the groups. […] FIG. 9B represents an example of the weight change (%) of Balb/c mice vs injection day when treated as above.

With `COc1cccc2c1C(=O)c1c(O)c3c(c(O)c1C2=O)C[C@@](O)(C(=O)CO)C[C@@H]3O[C@H]1C[C@H](N)[C@H](O)[C@H](C)O1.Cl` [DOX, doxorubicin HCl], in the data set with MDAMB-231 cells, the “percentage proliferation (cytotoxicity)” value is given as “equally cytotoxic regardless the cell line used”. Besides, in data set [1], the “number of doses after which all animals of the group died” value is on record as 4 doses.

The values above are taken from patent publication US20220289903A1, “POLYMER AND COMPOSITION FROM RENEWABLE SOURCE” (ÅBO AKADEMI UNIVERSITY, priority 2019, published 2022).
